Assay results reported in patent US8158667B2, “Topical treatment of cataracts in dogs” (priority 2006, dated 2012).

Assays:
[1] = test system: accumulation of sorbitol; details: fold more effective than sorbinil; '704 patent; cited from earlier work
[2] = biological target: aldose reductase (Homo sapiens, UniProt P15121); details: '704 patent; cited from earlier work
[3] = systemic half-life in dogs; details: dog, in vivo
Source text: Topical administration of the ARI 2R,4S-6-fluoro-2-methyl-spiro[chroman-4,4′-imidazolidine]-2′,5′-dione (2-MS) is the preferred method for preventing cataracts and ocular complications in diabetic dogs and cats. As a result of the short, 3 hr systemic half-life of 2-MS in dogs and subsequent studies conducted in galactose-fed dogs, it is estimated that, at minimum, a multiple 4-times/day oral dose is required for efficacy. Topical application permits a lower dosage and a lower frequency of administration. Topical application will also minimize the tendency of diabetic dogs to have their liver functions compromised because topical administration will bypass first pass liver metabolism. The topical treatment of the present invention will not only arrest the progression of sugar cataracts, but also reduces the density of early cortical cataracts. […] The topical treatment should also delay the formation of other ocular diabetes associated complications associated with aldose reductase, as summarized above.

[4] = stability of 2R-MS in carbomer gel emulsion; format: physicochemical; details: room temperature
Procedure: To maximize the topical administration of 2R-MS, vehicles or carriers of different viscosities comprised of polymers, gums, or viscosity enhancers were prepared. Formulations containing 3% of the AR inhibitor 2R-MS were prepared using the five different vehicles, which included 0.5% hydroxypropyl methylcellulose (HPMC); 0.5% xanthan gum; 0.5% gellan gum; 0.25% carbopol; and 0.25% carbopol (0.25% w/v)+0.25% HPMC. All were prepared in modified Sorensen's Phosphate Buffer, pH of 7.4. The drug and each vehicle were suspended directly in a sterile eye drop bottle by vortexing vigorously for at least one minute. […] All suspensions were vortexed prior to topical administration. An additional topical carbomer gel formulation consisting of 2.5% water soluble high molecular weight polymer of acrylic acid cross-linked with a polyether of sucrose was also developed. Carbomers are widely used in products for the treatment of dry eye. Crystalline 2R-MS was ground into a fine powder and mixed into an emulsion according to standard techniques.

Row | SMILES | effectiveness in preventing the accumulation of sorbitol relative to sorbinil [1] | inhibiting aldose reductase, compared with sorbinil [2] | half-life [3] [min] | stability in the emulsion [4]
1 | CC1CC2(NC(=O)NC2=O)c2cc(F)ccc2O1 (stereo not shown) [2-methyl sorbinil, 6-fluoro-2-methyl-spiro-[chroman-4,4′-imidazolidine]-2′,5′-dione] | 2-10 times | more effective in inhibiting aldose reductase |  | 
2 | C[C@@H]1C[C@]2(NC(=O)NC2=O)c2cc(F)ccc2O1 [2R-MS, 2R,4S-6-fluoro-2-methyl-spiro[chroman-4,4′-imidazolidine]-2′,5′-dione] |  |  | 180 | stable in the emulsion for a minimum of ten months
